The source of these data is article PMC7466040, “Sevanol and Its Analogues: Chemical Synthesis, Biological Effects and Molecular Docking” (Pharmaceuticals, 2020).

One experiment has as its system ASIC1a. Also on record: method as in PMID 25196733. Particulars: cited from earlier work.
The next experiment concerns ASIC currents. Further details: method as in PMID 16061325. Particulars: read-out: IC50, non-selective inhibition of ASIC currents; cited from earlier work.
For experiment [1], the system named is all of the functional isoforms of ASICs. Further details: method as in PMID 9261094. Particulars: read-out: IC50, inhibition of ASICs; cited from earlier work.
The target of the next experiment is T1, rat ASIC3 (Rattus norvegicus, UniProt O35240).
T1 construct: expressed in transfected cells; host or cells: Xenopus laevis oocytes (cRNA injection)
T1 sequence (O35240 1-533): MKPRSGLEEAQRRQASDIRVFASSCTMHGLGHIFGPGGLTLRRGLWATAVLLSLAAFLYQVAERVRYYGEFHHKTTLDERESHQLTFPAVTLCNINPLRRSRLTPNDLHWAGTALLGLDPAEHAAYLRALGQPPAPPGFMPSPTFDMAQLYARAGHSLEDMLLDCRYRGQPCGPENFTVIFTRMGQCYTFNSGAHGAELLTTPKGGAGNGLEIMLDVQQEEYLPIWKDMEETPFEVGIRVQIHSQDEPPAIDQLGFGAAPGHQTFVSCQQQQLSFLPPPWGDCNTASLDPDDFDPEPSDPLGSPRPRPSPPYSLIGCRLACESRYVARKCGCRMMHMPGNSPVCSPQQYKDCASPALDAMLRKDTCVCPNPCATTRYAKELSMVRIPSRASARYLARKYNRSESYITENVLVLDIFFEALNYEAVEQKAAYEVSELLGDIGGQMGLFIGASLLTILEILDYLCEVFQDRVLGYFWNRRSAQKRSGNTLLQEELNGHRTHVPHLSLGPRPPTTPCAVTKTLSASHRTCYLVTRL
The experiment is described as follows: Two-electrode voltage clamp on X. laevis oocytes expressing rat ASIC3. It is filed as cell-based. To be noted: for IC50: X. laevis oocytes, pH drop 7.4 to 5.5, holding potential −50 mV, mean ± SEM of 5–6, read-out: IC50, inhibition of ASIC3 current; for maximal current block, ASIC3: effect reversible. How it is done: (§1) Testing the activity of synthetic sevanol (s706) (as a mixture of 75% of sevanol and 25% of isosevanol) and its analogues (s590, EA, and s788) was carried out by the standard two-electrode voltage clamp method on X. laevis oocytes expressing rat ASIC1a and ASIC3 channels. The activation of the channels was performed using a rapid change of the solution from conditioning pH 7.4 to a solution with pH 5.5. Sevanol and its two analogues, s590 and EA, inhibited ASIC1a and ASIC3 channels.
(§2) Oocytes were harvested from female frogs anaesthetized with tricaine methane sulfonate (MS222) (0.17% solution), and the surgery was performed in an ice bath to avoid heavy bleeding. Defolliculated stage IV and V cells were injected with 2.5 and 10 ng cRNA, synthesized from PCi plasmids containing the rat ASIC1a and rat ASIC3 isoforms, respectively, using the Nanoliter 2000 microinjection system (World Precision Instruments, USA). The injected oocytes were kept for 2–3 days at 17 to 19 °C, and then for up to 5 days at 15 °C in a ND96 medium containing (in mM) 96 NaCl, 2 KCl, 1.8 CaCl2, 1 MgCl2, and 5 HEPES titrated to pH 7.4 with NaOH supplemented with gentamycin (50 μg/mL). Two-electrode voltage clamp recordings were performed at a holding potential of −50 mV using a GeneClamp 500 amplifier (Axon Instruments), and the data were filtered at 20 Hz and digitized at 100 Hz by an AD converter L780 (LCard, Russia). Microelectrodes were filled with 3 M KCl. The conditioning bath solution was ND96; the pH was adjusted to 7.4. The activating test solution was constructed based on the ND-96 buffer, in which 5 mM HEPES was replaced with 10 mM MES and pH was adjusted to 5.5. A computer-controlled valve system was used to achieve a rapid solution exchange in the recording chamber. A four parameter logistic equation was used for the curve-fitting analysis: F(x) = ((a1 − a2)/(1 + (x/x0)n)) + a2, where x is the concentration of the compound; F(x) is the response value at a given concentration of the compound; a1 is the control response value (fixed at 100%); x0 is the IC50 value; n is the Hill coefficient (slope factor); and a2 is the response value at the maximal inhibition (% of control).
(§3) Figure 2 The inhibitory activity of sevanol (s706) and its analogues. Currents were elicited by a drop from pH 7.4 to 5.5; the holding potential was −50 mV; (A,C) are dose–response curves for s706, s590 and EA inhibitory effects on ASIC1a and ASIC3 channels, respectively; (B,D) are reciprocal IC50 values for s706, s590 and EA inhibitory effects on ASIC1a and ASIC3 channels, respectively. The data were fitted by the logistic equation. Each point is the mean ± SEM of 5–6 measurements. * p < 0.05, ** p < 0.005.

The next experiment addresses T2, rat ASIC1a (Rattus norvegicus, UniProt P55926).
T2 construct: expressed in transfected cells; host or cells: Xenopus laevis oocytes (cRNA injection)
T2 sequence (P55926 1-526): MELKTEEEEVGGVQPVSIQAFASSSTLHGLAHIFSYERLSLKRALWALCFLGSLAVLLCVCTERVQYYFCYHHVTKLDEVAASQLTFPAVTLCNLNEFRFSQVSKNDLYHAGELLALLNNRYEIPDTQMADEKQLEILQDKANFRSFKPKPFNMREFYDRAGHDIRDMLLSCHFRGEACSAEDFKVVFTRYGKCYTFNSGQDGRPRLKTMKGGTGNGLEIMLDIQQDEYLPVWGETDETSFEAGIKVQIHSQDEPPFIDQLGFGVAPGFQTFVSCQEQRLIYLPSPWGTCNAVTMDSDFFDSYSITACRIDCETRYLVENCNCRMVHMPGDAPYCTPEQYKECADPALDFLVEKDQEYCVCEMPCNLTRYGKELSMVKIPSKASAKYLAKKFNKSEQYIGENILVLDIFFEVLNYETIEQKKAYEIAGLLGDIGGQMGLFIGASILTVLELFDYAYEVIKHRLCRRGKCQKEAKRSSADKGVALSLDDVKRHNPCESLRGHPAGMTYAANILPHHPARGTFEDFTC
The experiment is described as follows: Two-electrode voltage clamp on X. laevis oocytes expressing rat ASIC1a. To be noted: for IC50: X. laevis oocytes, pH drop 7.4 to 5.5, holding potential −50 mV, mean ± SEM of 5–6, read-out: IC50, inhibition of ASIC1a current; for maximal current block, ASIC1a: effect reversible. It counts as cell-based. How it is done:
as §1, §2, §3
(Two-electrode voltage clamp is typically applied to oocytes expressing channels or transporters.)

In experiment [2] the test system is ASIC3-containing channels. Also on record: method as in PMID 11588175. Particulars: read-out: IC50, inhibition of ASIC3-containing channels; cited from earlier work.
In experiment [3] the test system is ASIC1a-containing channels. Also on record: method as in PMID 11588175. To be noted: read-out: IC50, inhibition of ASIC1a-containing channels; cited from earlier work.

In the case of `Nc1c2ccccc2nc2ccccc12` [9-aminoacridine], the “inhibition of ASIC1a” value in the experiment with ASIC1a is reported as “inhibit ASIC1a in submillimolar concentrations”.

Take `CC(C)C1c2cc(C3CC3c3ccc4cc(C(=N)N)ccc4c3)ccc2CCN1C` (stereo not shown) [A-317567]: the IC50 in the experiment with ASIC currents is 2 to 30 µM.

Consider `N=C(N)NC(=O)c1nc(Cl)c(N)nc1N` [Amiloride], for which the IC50 in experiment [1] was 10 to 60 µM.

In the case of `O=C(O)C1=Cc2cc(O)c(O)cc2[C@@H](c2ccc(O)c(O)c2)[C@@H]1C(=O)O` [EA, epiphyllic acid], the values for the 50% inhibitory concentration (IC50) on rat ASIC3 and at rat ASIC1a were 424 ± 33 µM and 415 ± 66 µM, respectively. In addition, the “maximal current block, ASIC3” value on rat ASIC3 (pH 7.4 to 5.5) is 100%. Moreover, on rat ASIC3 (ratio of ASIC1a and ASIC3 inhibition), the “effectiveness in inhibiting ASIC3 relative to ASIC1a” value was “acted equally on the ASIC1a and ASIC3 channels”. Besides, the “maximal current block, ASIC1a” value on rat ASIC1a (pH 7.4 to 5.5) was 100%.

For the compound `CC(=O)Oc1ccccc1C(=O)O` [aspirin], the IC50 in experiment [2] was 260 µM.

Regarding `O=C(O)Cc1ccccc1Nc1c(Cl)cccc1Cl` [diclofenac], the IC50 in experiment [2] is 92 µM.

For `CC(C(=O)O)c1ccc(-c2ccccc2)c(F)c1` (stereo not shown) [flurbiprofen], the 50% inhibitory concentration (IC50) in experiment [3] was 350 µM.

With `CC(C)Cc1ccc(C(C)C(=O)O)cc1` (stereo not shown) [ibuprofen], in experiment [3], the IC50 is 350 µM.

Take `CC12CC3CC(C)(C1)CC(N)(C3)C2` [memantine]: in the experiment with ASIC1a, the “inhibition of ASIC1a” value was “inhibit ASIC1a in submillimolar concentrations”.

Turning to `O=C(O)CC(OC(=O)C1=Cc2cc(O)c(O)cc2C(c2ccc(O)c(O)c2)C1C(=O)OC(CC(=O)O)C(=O)O)C(=O)O` (stereo not shown) [s590, 2,2′-((1-(3,4-dihydroxyphenyl)-6,7-dihydroxy-1,2-dihydronaphthalene-2,3-dicarbonyl)bis(oxy))disuccinic acid], the IC50 at rat ASIC3 amounted to 241 ± 25 µM; on rat ASIC1a it was 297 ± 41 µM. Moreover, the “maximal current block, ASIC3” value on rat ASIC3 (pH 7.4 to 5.5) was determined as 100%. The “maximal current block, ASIC1a” value on rat ASIC1a (pH 7.4 to 5.5) is 100%.

With `COC(=O)CC(C(=O)OC)C(OC(=O)C1=Cc2cc(O)c(O)cc2C(c2ccc(O)c(O)c2)C1C(=O)OC(C(=O)OC)C(CC(=O)OC)C(=O)OC)C(=O)OC` (stereo not shown) [s788, Hexamethyl1,1′-((1-(3,4-dihydroxyphenyl)-6,7-dihydroxy-1,2-dihydronaphthalene-2,3-dicarbonyl)bis(oxy))bis(propane-1,2,3-tricarboxylate)], the “activity on ASIC3 channel” value at rat ASIC3 (pH 7.4 to 5.5) is reported as “did not demonstrate any activity”. The “activity on ASIC1a channel” value at rat ASIC1a (pH 7.4 to 5.5) is reported as “did not demonstrate any activity”.

Usually IC50 stands for the point on the concentration scale where inhibition reaches its midpoint.
